Series [1] concerns wheat (Tr). As to the kind of experiment: Test Example 9: crop plant selectivity by upland field foliage treatment (wheat), phytotoxicity.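 Further: grade of crop injury; 5 = at least 90%; 4 = 70 to 90%; 3 = 50 to 70%; 2 = 30 to 50%; 1 = 10 to 30%; 0 = under 10%.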 The note with it: dose 1.6 g ai/10a, 14th day after treatment. In short, it runs like this:
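Seeds of wheat, pale smartweed, slender amaranth, common lambsquarters and China jute are sown in sand and grown 2 weeks under glass. Foliage is then treated, culture resumes in the greenhouse, and damage is graded on the 14th day.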

The test system of series [2] is cotton (Go). Kind of series: Test Example 4: crop plant selectivity by upland field soil treatment (cotton), phytotoxicity. In kind it is in vivo. Further details: scale not given here. The conditions noted are these: evaluated 21st day after application. In short, it runs like this: (§1)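 Seeds of cotton and several weed species were sown in sand-filled pots and covered with soil before soil treatment with the test compound. Plants were grown in a greenhouse, and herbicidal effect and crop phytotoxicity were scored against set standards 21 days after application.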

Series [3] relates to China jute (Ab). Kind of series: Test Example 11: crop plant selectivity by upland field foliage treatment (corn), herbicidal effects. In kind it is in vivo. Further details: scale not given here. The note with it: upland field foliage treatment (corn test), dose 1.6 g ai/10a, 14th day after treatment. In a few lines: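 Corn and the weed species were sown together in sand-filled pots and grown in a greenhouse for 2 weeks before foliar treatment. Herbicidal effect was scored on day 14 after treatment against a graded standard scale, with corn phytotoxicity scored alongside.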

Series [4] relates to China jute (Ab). As to the kind of experiment: Test Example 4: crop plant selectivity by upland field soil treatment (cotton), herbicidal effects. The conditions noted are these: evaluated 21st day after application. The series is classed as in vivo. Further details: scale not given here. In short, it runs like this: as §1
The test system of series [5] is common lambsquarters (Ch). Described as above. In kind it is in vivo. Further details: scale not given here. The conditions noted are these: evaluated 21st day after application. In short, it runs like this:
as §1

The test system of series [6] is pale smartweed (Po). The description is as above. The series is classed as in vivo. Also noted: scale not given here. The note with it: evaluated 21st day after application. In a few lines:
as §1

Series [7] has as its system green foxtail (Se). The series is described as above. Further details: scale not given here. The conditions noted are these: evaluated 21st day after application. The series is classed as in vivo. In short, it runs like this: as §1
Series [8] relates to slender amaranth (Am). The series is described as above. Further details: scale not given here. The conditions noted are these: evaluated 21st day after application. In kind it is in vivo. In a few lines: as §1

The results in this text go back to patent publication US6472348B1, “Pyridone derivatives and herbicides” (Kumiai Chemical Industry Co., Ltd., priority 1996, dated 2002).

As for `C=CCOc1cc(-c2ccc(C(F)(F)F)n(C)c2=O)c(F)cc1Cl` [1-16], the “Phytotoxicity Tr” value in series [1] was determined as 2. For the same molecule, the “Phytotoxicity Go” value in series [2] (dose 1.6 g ai/10 a) and in series [2] (dose 6.3 g ai/10 a) was 0 throughout. In addition, the “Herbicidal effects Ab” value in series [3], in series [4] (dose 1.6 g ai/10 a) and in series [4] (dose 6.3 g ai/10 a) was 5 in each case. Further, the “Herbicidal effects Ch” value in series [5] (dose 1.6 g ai/10 a) and in series [5] (dose 6.3 g ai/10 a) was 5 throughout. Besides, the “Herbicidal effects Po” value in series [6] (dose 1.6 g ai/10 a) and in series [6] (dose 6.3 g ai/10 a) was 5 in each case. The “Herbicidal effects Se” value in series [7] (dose 1.6 g ai/10 a) and in series [7] (dose 6.3 g ai/10 a) was 5 throughout. Moreover, the “Herbicidal effects Am” value in series [8] (dose 1.6 g ai/10 a) and in series [8] (dose 6.3 g ai/10 a) was 5 throughout.
As to `C#CCOc1cc(-c2ccc(C(F)(F)F)n(C)c2=O)c(F)cc1Cl` [1-18], the “Phytotoxicity Go” value in series [2] (dose 1.6 g ai/10 a) and in series [2] (dose 6.3 g ai/10 a) was 1 in each case. The “Herbicidal effects Ab” value in series [3], in series [4] (dose 1.6 g ai/10 a) and in series [4] (dose 6.3 g ai/10 a) was 5 in each case. For the same molecule, the “Herbicidal effects Ch” value in series [5] (dose 1.6 g ai/10 a) and in series [5] (dose 6.3 g ai/10 a) was 5 throughout. Also, the “Herbicidal effects Po” value in series [6] (dose 1.6 g ai/10 a) and in series [6] (dose 6.3 g ai/10 a) was 5 each time. Further, the “Herbicidal effects Se” value in series [7] (dose 1.6 g ai/10 a) and in series [7] (dose 6.3 g ai/10 a) was 5 each time. The “Herbicidal effects Am” value in series [8] (dose 1.6 g ai/10 a) and in series [8] (dose 6.3 g ai/10 a) was 5 throughout.
Regarding `Cn1c(C(F)(F)F)ccc(-c2cc(OCC#N)c(Cl)cc2F)c1=O` [1-25], the “Phytotoxicity Tr” value in series [1] is reported as 2. For the same molecule, the “Phytotoxicity Go” value in series [2] (dose 6.3 g ai/10 a) came out at 1. Moreover, the “Herbicidal effects Ab” value in series [3] and in series [4] (dose 6.3 g ai/10 a) was 5 in each case. Besides, the “Herbicidal effects Ch” value in series [5] (dose 6.3 g ai/10 a) turned out to be 5. Further, the “Herbicidal effects Po” value in series [6] (dose 6.3 g ai/10 a) is recorded as 5. The “Herbicidal effects Se” value in series [7] (dose 6.3 g ai/10 a) is listed as 5. The “Herbicidal effects Am” value in series [8] (dose 6.3 g ai/10 a) is 5.
As to `C#CCOc1cc(-c2ccc(C(F)(F)F)n(C)c2=O)c(Cl)cc1Cl` [1-30], the “Phytotoxicity Tr” value in series [1] was 2. The “Phytotoxicity Go” value in series [2] (dose 1.6 g ai/10 a) is recorded as 0; in series [2] (dose 6.3 g ai/10 a) it was 1. For the same molecule, the “Herbicidal effects Ab” value in series [3], in series [4] (dose 1.6 g ai/10 a) and in series [4] (dose 6.3 g ai/10 a) was 5 in each case. For the same molecule, the “Herbicidal effects Ch” value in series [5] (dose 1.6 g ai/10 a) and in series [5] (dose 6.3 g ai/10 a) was 5 each time. Besides, the “Herbicidal effects Po” value in series [6] (dose 1.6 g ai/10 a) and in series [6] (dose 6.3 g ai/10 a) was 5 throughout. In addition, the “Herbicidal effects Se” value in series [7] (dose 1.6 g ai/10 a) and in series [7] (dose 6.3 g ai/10 a) was 5 in each case. The “Herbicidal effects Am” value in series [8] (dose 1.6 g ai/10 a) and in series [8] (dose 6.3 g ai/10 a) was 5 each time.
For the molecule `CC(C)Sc1cc(-c2ccc(C(F)(F)F)n(C)c2=O)c(F)cc1Cl` [1-43], the “Phytotoxicity Tr” value in series [1] is reported as 2. Further, the “Phytotoxicity Go” value in series [2] (dose 6.3 g ai/10 a) worked out at 0. In series [4] (dose 6.3 g ai/10 a), the “Herbicidal effects Ab” value was determined as 4. In series [5] (dose 6.3 g ai/10 a), the “Herbicidal effects Ch” value is 5. The “Herbicidal effects Po” value in series [6] (dose 6.3 g ai/10 a) was found to be 5. In addition, the “Herbicidal effects Se” value in series [7] (dose 6.3 g ai/10 a) is on record as 5. Further, the “Herbicidal effects Am” value in series [8] (dose 6.3 g ai/10 a) amounted to 5.
Regarding `C#CCSc1cc(-c2ccc(C(F)(F)F)n(C)c2=O)c(F)cc1Cl` [1-44], the “Phytotoxicity Tr” value in series [1] is recorded as 2. The “Phytotoxicity Go” value in series [2] (dose 6.3 g ai/10 a) was found to be 1. Moreover, in series [4] (dose 6.3 g ai/10 a), the “Herbicidal effects Ab” value is 5. In series [5] (dose 6.3 g ai/10 a), the “Herbicidal effects Ch” value is reported as 5. The “Herbicidal effects Po” value in series [6] (dose 6.3 g ai/10 a) is given as 5. In addition, the “Herbicidal effects Se” value in series [7] (dose 6.3 g ai/10 a) is recorded as 5. In series [8] (dose 6.3 g ai/10 a), the “Herbicidal effects Am” value is 5.
Turning to `Cc1cc(-c2ccc(C(F)(F)F)n(C)c2=O)c(F)cc1Cl` [1-90], the “Phytotoxicity Go” value in series [2] (dose 6.3 g ai/10 a) turned out to be 1. Moreover, the “Herbicidal effects Ab” value in series [4] (dose 6.3 g ai/10 a) turned out to be 5. The “Herbicidal effects Ch” value in series [5] (dose 6.3 g ai/10 a) was found to be 5. The “Herbicidal effects Po” value in series [6] (dose 6.3 g ai/10 a) is reported as 5. Besides, in series [7] (dose 6.3 g ai/10 a), the “Herbicidal effects Se” value turned out to be 5. The “Herbicidal effects Am” value in series [8] (dose 6.3 g ai/10 a) amounted to 5.
For the molecule `COCSc1cc(-c2ccc(C(F)(F)F)n(C)c2=O)c(F)cc1Cl` [1-91], the “Phytotoxicity Tr” value in series [1] was 2. In addition, the “Phytotoxicity Go” value in series [2] (dose 1.6 g ai/10 a) is given as 0; in series [2] (dose 6.3 g ai/10 a) it was 1. Moreover, the “Herbicidal effects Ab” value in series [4] (dose 1.6 g ai/10 a) and in series [4] (dose 6.3 g ai/10 a) was 5 in each case. The “Herbicidal effects Ch” value in series [5] (dose 1.6 g ai/10 a) and in series [5] (dose 6.3 g ai/10 a) was 5 throughout. Further, the “Herbicidal effects Po” value in series [6] (dose 1.6 g ai/10 a) and in series [6] (dose 6.3 g ai/10 a) was 5 throughout. For the same molecule, the “Herbicidal effects Se” value in series [7] (dose 1.6 g ai/10 a) and in series [7] (dose 6.3 g ai/10 a) was 5 throughout. The “Herbicidal effects Am” value in series [8] (dose 1.6 g ai/10 a) and in series [8] (dose 6.3 g ai/10 a) was 5 throughout.
Regarding `Cn1c(C(F)(F)F)ccc(-c2cc(Cl)c(Cl)cc2F)c1=O` [1-136], the “Phytotoxicity Go” value in series [2] (dose 6.3 g ai/10 a) is given as 1. Further, the “Herbicidal effects Ab” value in series [4] (dose 6.3 g ai/10 a) was 5. Further, the “Herbicidal effects Ch” value in series [5] (dose 6.3 g ai/10 a) stood at 5. Besides, in series [6] (dose 6.3 g ai/10 a), the “Herbicidal effects Po” value is 5. Also, in series [7] (dose 6.3 g ai/10 a), the “Herbicidal effects Se” value was 5. Further, the “Herbicidal effects Am” value in series [8] (dose 6.3 g ai/10 a) worked out at 5.
